Experimental findings from patent US20250281446A1, “COMPOSITIONS, SYSTEMS, AND METHODS FOR TREATING CANCER IN STANDARD OF CARE AND/OR PROFIBROTIC CHEMOTHERAPEUTIC AGENT-NAÏVE PATIENTS USING TUMOR TREATING FIELDS AND CHEMOTHERAPEUTIC AGENTS” (Novocure GmbH, priority 2024, published 2025) are described below.

Experiment [1] relates to platinum-resistant ovarian cancer (PROC). The experiment in a line: Randomized phase 3 study ENGOT-ov50/GOG-3029/INNOVATE-3 (NCT03940196): TTFields therapy with weekly paclitaxel vs weekly paclitaxel alone. It counts as in vivo, human. An excerpt: This randomized phase 3 study investigated TTFields therapy with paclitaxel (TTFields+PTX) vs paclitaxel (PTX) in patients with platinum-resistant ovarian cancer (PROC).
To evaluate the safety and efficacy of TTFields therapy with weekly paclitaxel compared to weekly paclitaxel alone in PROC, the Phase 3 study design shown in FIG. 1 was utilized. ENGOT-ov50/GOG-3029/INNOVATE-3 (NCT03940196) enrolled adults with PROC, ≤5 prior lines of therapy (LOT), ≤2 prior LOT following platinum-resistance, and ECOG 0-1. Patients received TTFields (200 kHz; ≥18 hours/day)+PTX (80 mg/m^2) weekly or PTX. Primary endpoint was overall survival (OS). 558 patients were randomized to receive TTFields+PTX (n=280) or PTX (n=278) March 2019 to November 2021.
Patients were heavily pretreated in the ITT population, as 24.4% of patients had received 4+prior lines of therapy (LOT), and 65.9% had received prior bevacizumab. In the overall intention-to-treat population, TTFields therapy median duration was 15.9 (0.1-159.7) weeks.
Innovate-3 study excluding patients that had received doxorubicin prior to TTFields+Paclitaxel or Paclitaxel
This Example contains further data related to the study of Example 1. FIGS. 10-11 include data of PROC patients that had received doxorubicin prior to treatment or were Doxorubicin-/PLD-naïve and which received treatment comprising TTFields plus Paclitaxel or Paclitaxel alone. With Doxorubicin treatment prior to use, overall survival was 10.97 months with TTFields and 13.21 months without TTFields. […] In addition, without prior use of doxorubicin/PLD, the hazard ratio for TTFields was 0.593 with a p value of 0.005.

The next experiment deals with tumor. The experiment in a line: Preclinical data (unpublished): tumor fibrosis and tissue conductivity.

As for `CC(=O)O[C@H]1C(=O)[C@@]2(C)[C@H]([C@H](OC(=O)c3ccccc3)[C@]3(O)C[C@H](OC(=O)[C@H](O)[C@@H](NC(=O)c4ccccc4)c4ccccc4)C(C)=C1C3(C)C)[C@]1(OC(C)=O)CO[C@@H]1C[C@@H]2O` [PTX, paclitaxel], the overall survival in experiment [1] (Doxorubicin-/PLD-naïve group without prior use of doxorubicin (Example 2, FIGS. 10-11)) is listed as 11.93 months; in experiment [1] (patients with Doxorubicin treatment prior to use (Example 2, FIG. 10)), 13.21 months. For the same molecule, the “overall survival, post-hoc analysis” value in experiment [1] (PLD-naïve subgroup (Example 1, FIG. 7), TTFields+PTX n=113, PTX n=88) is on record as 11.7 months. Further, the “median overall survival (OS)” value in experiment [1] (overall ITT population, PROC patients, PTX 80 mg/m^2 weekly, TTFields 200 kHz, ≥18 hours/day) is 11.9 months.
For the molecule `COc1cccc2c1C(=O)c1c(O)c3c(c(O)c1C2=O)C[C@@](O)(C(=O)CO)C[C@@H]3O[C@H]1C[C@H](N)[C@H](O)[C@H](C)O1` [doxorubicin], in the experiment with tumor, the tissue conductivity entry is “changes tissue conductivity” and the tumor fibrosis result was “induces tumor fibrosis”.
